Values joined by “and” are separate entries in the source; they are usually repeats but may differ in a detail not shown here. Equal values may be shown once.
Experiments:
[1] = target: T1, Aβ(1-40) (Homo sapiens, UniProt P05067); test: BASSR (Beta-Amyloid Self-Seeding Radioassay), inhibitors of self-seeded amyloid fibril growth; format: biochemical; settings: 30 μM soluble Aβ(1-40) + 125I-labeled Aβ(1-40), 37° C., 3 to 5 hours; replicate values; letter = synthetic lot; ppt = precipitate; V-shaped = inhibition followed by precipitation
T1 construct: […]; purchased Bachem, Torrance, Calif
Method in brief: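 Self-seeded growth of ^125I-labeled Aβ(1-40) fibrils in 50 mM sodium phosphate pH 7.5, 100 mM NaCl, 0.02% NaN3, 1 M urea; compound (3-fold dilutions from 100 μM final) preincubated 10 min on ice, then 3–5 h at 37° C. Fibrils collected by vacuum filtration on 0.2 μm filters and counted for radioactivity.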

[2] = target: T1, Aβ(1-40); test: BASST (Beta-Amyloid Self-Seeding, Thioflavin T), inhibitors of self-seeded amyloid fibril growth; format: biochemical; settings: 30 μM soluble Aβ(1-40), 37° C., 3 to 5 hours, thioflavin T fluorescence; replicate values; letter = synthetic lot; read-out: BASST (IC50 = μM)
Method in brief: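 Self-seeded Aβ(1-40) fibril growth was run in 50 mM sodium phosphate pH 7.5, 100 mM NaCl, 0.02% NaN3, 1 M urea. Compounds were tested in 3-fold serial dilutions (top 100 μM final): 10 min on ice, then 3–5 h at 37 °C. Fibrils were read by 5 μM thioflavin T fluorescence (ex 440/em 485 nm).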

[3] = target: T2, Aβ (1-42) (Homo sapiens, UniProt P05067); test: BATYM assay (Aβ (1-42) aggregation, Thioflavin T fluorescence); format: biochemical; settings: Aβ 1-42 final concentration 100 μM, 37° C., 1 day, letter = synthetic lot
T2 construct: Required Aβ (1-42) (California Peptide) was dried from its hexafluoroisopropanol (HFIP) stock solution; purchased California Peptide
Method in brief: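 Aβ (1-42) (100 μM final, PBS pH 7.4 from DMSO) incubated with compound at 37° C. for 1 day. Aggregation read by ThT (30 μM, glycine-NaOH pH 8.5) fluorescence, ex 440/em 485 nm; inhibition as fluorescence reduction corrected for compound-alone signal, IC50 by curve fitting from two experiments in triplicate.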

[4] = target: T3, Aβ (1-40) peptide (Homo sapiens, UniProt P05067); test: BAPA (Beta-Amyloid Peptide Aggregation, pH 6.0, filtration); format: biochemical; settings: Aβ (1-40) 33 μM, pH 6.0, 2 to 4 hours at room temperature; replicate values; letter = synthetic lot
T3 construct: 10 μL 0.5 mg/mL Aβ (1-40) peptide in 20% HFIP
Method in brief: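 Aggregation of human Aβ (1-40) peptide was measured in an endpoint filtration assay. The peptide was first reduced to monomer with hexafluoroisopropanol (HFIP), then used at 33 μM so it would aggregate at pH 6.0, and incubated for 2 to 4 hours at room temperature. Filter plates were washed with 100 μL phosphate buffer, impregnated with Meltilex, and counted on a Microbeta counter with background correction.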

T2 sequence (P05067 672-713 limits assumed): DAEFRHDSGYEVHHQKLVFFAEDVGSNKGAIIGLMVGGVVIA
T1 sequence (P05067 672-711 limits assumed): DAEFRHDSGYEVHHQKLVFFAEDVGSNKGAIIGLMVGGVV
T3 sequence (P05067 672-711 limits assumed): as above

IC50 [1] | IC50 [2] [µM] | IC50 [3] [µM] | IC50 [4] [µM] | melting point [°C] | SMILES
> 100 µM | 3 | > 100 | 53 | 140 to 145 | CC(=O)Nc1cccc(CCCc2ccc(Nc3ccccc3C(=O)O)cc2)c1 [Example 40, 2-{4-[3-(3-Acetylaminophenyl)propyl]phenylamino}benzoic acid]
> 100 µM | 5 | 49.7 | 42 | 166 to 171 | CCN(CC)c1cccc(CCc2ccc(Nc3ccccc3C(=O)O)cc2)c1.Cl [Example 41, 2-{4-[2-(3-Diethylaminophenyl)ethyl]phenylamino}benzoic acid monohydrochloride]
> 100 µM | 2 | 55.6 | 30 | 187 to 193 | Cl.O=C(O)c1ccccc1Nc1ccc(CCc2cccc(N3CCCCC3)c2)cc1 [Example 42, 2-{4-[2-(3-Piperidin-1-ylphenyl)ethyl]phenylamino}benzoic acid monohydrochloride]
12 µM | 2 | 5.1 | 101 | 222 to 224 | CCCCN1CCCc2cc(C=C3SC(=S)N(CC(=O)O)C3=O)ccc21 [Example 55, {5-[(1-Butyl-1,2,3,4-tetrahydro-6-quinolyl)methylidene]-4-oxo-2-thioxothiazolidin-3-yl}acetic acid]
> 100 µM | 3 | 11.5 | 30 | > 250 | CCCCN1CCc2cc(C=C3SC(=S)N(CC(=O)O)C3=O)ccc21 [Example 56, {5-[(1-Butyl-2,3-dihydro-1H-indol-5-yl)methylidene]-4-oxo-2-thioxothiazolidin-3-yl}acetic acid]
> 100 µM | > 100 | > 100 | 3 | 98 to 99 | Cc1ccc(Nc2ccc(CCCc3ccc(Cl)c(Cl)c3)cc2)c(C(=O)O)c1 [Example 59, 2-{4-[3-(3,4-Dichloro-phenyl)propyl]phenylamino}-5-methyl-benzoic acid]
> 100 µM | 3 | 40.7 | 8 | 53 to 61 | CS(=O)(=O)NC(=O)c1ccccc1Nc1ccc(CCCc2ccc(Cl)c(Cl)c2)cc1 [Example 60, N-(2-{4-[3-(3,4-Dichloro-phenyl)-propyl]-phenylamino}-benzoyl)-methanesulfonamide]
15 µM (2×) and 18 µM | 1 | 9.43 | 45 | 207 to 209 | O=C(O)c1cc([N+](=O)[O-])ccc1Nc1ccc(CCc2cccc(C(F)(F)F)c2Cl)cc1 [Example 63]
> 100 µM | 5 | 35 | > 100 | 137 to 142 | Nc1ccc(Nc2ccc(CCc3ccc(Cl)c(Cl)c3)cc2)c(C(=O)O)c1 [Example 64, 5-Amino-2-{4-[2-(3,4-Dichloro-phenyl)-ethyl]-phenylamino}-benzoic acid]
60 µM and 80 µM | 1.5 | 15.9 | > 100 | 198 to 202 | O=C(O)c1cc([N+](=O)[O-])ccc1Nc1ccc(CCc2ccccc2)cc1 [Example 65, 5-Nitro-2-(4-phenethyl-phenylamino)-benzoic acid]
> 100 µM | 2.1 | 50.1 | > 100 | 148 to 150 | O=C(O)c1ccccc1Nc1ccc(CCc2ccc(F)c(C(F)(F)F)c2)cc1 [Example 66, 2-{4-[2-(4-Fluoro-3-trifluoromethyl-phenyl)-ethyl]-phenylamino}-benzoic acid]
41 µM | 4 | 13.3 | > 60 | 203 to 208 | O=C(O)c1cc([N+](=O)[O-])ccc1Nc1ccc(CCc2ccc(F)c(F)c2)cc1 [Example 67, 2-{4-[2-(3,4-Difluoro-phenyl)-ethyl]-phenylamino}-5-nitro-benzoic acid]
2 µM and 3.5 µM | 0.8 | 11.7 | 58 | 190 to 193 | O=C(O)c1cc([N+](=O)[O-])ccc1Nc1ccc(CCc2ccc(F)c(C(F)(F)F)c2)cc1 [Example 69, 2-{4-[2-(4-Fluoro-3-trifluoromethyl-phenyl)-ethyl]-phenylamino}-5-nitro-benzoic acid]
20 µM | 10 | > 100 | 65 | 173 to 182 | O=C(O)c1ccccc1Nc1ccc(CCc2ccccc2)cc1 [Example 70, 2-(4-Phenethyl-phenylamino)-benzoic acid]

The next lines start with the compound.

SMILES | IC50 [1] | IC50 [2] [µM] | IC50 [3] [µM] | IC50 [4] [µM] | melting point [°C]
O=C(O)c1ccccc1Nc1ccc(CCCc2cccc([N+](=O)[O-])c2)cc1 [Example 21, 2-{4-[3-(3-Nitrophenyl)propyl]phenylamino}benzoic acid] | 3 µM | 4 | 62.7 | 26 | 164 to 167
Nc1ccc(CCc2ccc(Nc3ccccc3C(=O)O)cc2)cc1 [Example 24] | > 100 µM | 20 | > 100 | 91 | 198 to 201
CCCN(CCC)c1ccc(CCc2ccc(Nc3ccccc3C(=O)O)cc2)cc1.Cl [Example 25, 2-{4-[2-(4-Dipropylaminophenyl)ethyl]phenylamino}benzoic acid monohydrochloride] | > 100 µM | 4 | 21.1 | 47 | 176 to 177
CN(C)c1cccc(CCCc2ccc(Nc3ccccc3C(=O)O)cc2)c1 [Example 28, 2-{4-[3-(3-Dimethylaminophenyl)propyl]phenylamino}benzoic acid] | > 100 µM | 5 | 42.3 | 27 | 115 to 117
CCNc1ccc(CCCc2ccc(Nc3ccccc3C(=O)O)cc2)cc1 [Example 29, 2-{4-[3-(4-Ethylaminophenyl)propyl]phenylamino}benzoic acid] | > 100 µM | 4 | 38.1 | 30 | 133
O=C(O)c1ccccc1Nc1ccc(CCc2cccc(N(Cc3ccccc3)Cc3ccccc3)c2)cc1 [Example 31, 2-{4-[2-(3-Dibenzylaminophenyl)ethyl]phenylamino}benzoic acid] | > 100 µM | 1 | 22.6 | 86 | 95.5 to 97.5
Nc1cccc(CCc2ccc(Nc3ccccc3C(=O)O)cc2)c1 [Example 33, 2-{4-[2-(3-Aminophenyl)ethyl]phenylamino}benzoic acid] | > 100 µM | > 100 | > 100 | > 10 | 182 to 184
CC(=O)Nc1cccc(CCc2ccc(Nc3ccccc3C(=O)O)cc2)c1 [Example 36, 2-{4-[2-(3-Acetylaminopheny)ethyl]phenylamino}benzoic acid] | > 100 µM | > 100 | > 100 | 149 | 213 to 215
CCCN(CCC)c1cccc(CCc2ccc(Nc3ccccc3C(=O)O)cc2)c1.Cl [Example 37, 2-{4-[2-(3-Dipropylaminophenyl)ethyl]phenylamino}benzoic acid monohydrochloride] | > 100 µM | 0.8 | 30.2 | 25 | 189 to 193
CCCCN(CCCC)c1cccc(CCc2ccc(Nc3ccccc3C(=O)O)cc2)c1.Cl [Example 38, 2-{4-[2-(3-Dibutylaminophenyl)ethyl]phenylamino}benzoic acid monohydrochloride] | 20 µM and 10 µM | 3 | 23.4 | 184 | 175 to 180
CC(=O)Nc1ccc(CCCc2ccc(Nc3ccccc3C(=O)O)cc2)cc1 [Example 39, 2-{4-[3-(4-Acetylaminophenyl)propyl]phenylamino}benzoic acid] | > 100 µM | 20 | > 100 | 21 | 176 to 178

From patent US6972287B1, “Method of inhibiting amyloid protein aggregation and imaging amyloid deposits” (Pfizer Inc., priority 1999, dated 2005)
